The record followed here is US11891365B2, “3-alkyl-4-amido-bicyclic [4,5,0] hydroxamic acids as HDAC inhibitors” (Valo Health, Inc., priority 2015, dated 2024).

The assay has as its target T1, Full length human recombinant HDAC6 protein (Homo sapiens, UniProt Q9UBN7).
T1 sequence (Q9UBN7 1-1215): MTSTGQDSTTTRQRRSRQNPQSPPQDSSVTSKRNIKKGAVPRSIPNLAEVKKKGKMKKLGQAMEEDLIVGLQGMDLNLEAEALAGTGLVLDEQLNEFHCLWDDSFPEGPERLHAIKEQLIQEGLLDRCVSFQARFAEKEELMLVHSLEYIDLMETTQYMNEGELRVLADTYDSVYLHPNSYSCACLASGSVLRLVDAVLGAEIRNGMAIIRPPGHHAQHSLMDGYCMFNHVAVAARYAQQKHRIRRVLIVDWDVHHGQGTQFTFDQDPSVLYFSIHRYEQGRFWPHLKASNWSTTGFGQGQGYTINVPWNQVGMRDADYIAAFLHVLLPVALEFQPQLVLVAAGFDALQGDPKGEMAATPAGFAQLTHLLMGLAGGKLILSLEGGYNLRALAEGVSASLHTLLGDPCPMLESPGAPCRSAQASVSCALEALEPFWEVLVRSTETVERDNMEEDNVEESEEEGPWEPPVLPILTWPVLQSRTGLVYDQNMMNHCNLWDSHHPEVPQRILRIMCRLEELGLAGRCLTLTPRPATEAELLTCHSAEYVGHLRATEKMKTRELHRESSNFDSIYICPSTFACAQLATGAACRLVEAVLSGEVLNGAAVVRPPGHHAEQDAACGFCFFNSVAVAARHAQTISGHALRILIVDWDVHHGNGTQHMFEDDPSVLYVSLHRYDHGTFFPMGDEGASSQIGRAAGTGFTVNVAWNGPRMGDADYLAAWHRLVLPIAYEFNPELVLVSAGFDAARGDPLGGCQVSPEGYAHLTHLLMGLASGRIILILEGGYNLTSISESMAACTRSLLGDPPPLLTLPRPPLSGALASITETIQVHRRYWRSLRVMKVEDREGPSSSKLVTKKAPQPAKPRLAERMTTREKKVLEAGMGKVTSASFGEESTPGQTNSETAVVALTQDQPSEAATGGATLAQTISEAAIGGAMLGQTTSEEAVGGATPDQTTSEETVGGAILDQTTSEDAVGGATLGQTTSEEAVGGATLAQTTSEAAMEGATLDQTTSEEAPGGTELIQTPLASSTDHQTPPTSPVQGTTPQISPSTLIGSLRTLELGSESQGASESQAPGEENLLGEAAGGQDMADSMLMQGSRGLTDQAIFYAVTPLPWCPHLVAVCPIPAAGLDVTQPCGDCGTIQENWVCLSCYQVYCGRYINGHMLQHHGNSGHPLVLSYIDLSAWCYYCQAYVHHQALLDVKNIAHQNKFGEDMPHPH
Kind of assay: In vitro histone deacetylase assay: enzymatic HDAC6 electrophoretic mobility shift assay. It is filed as biochemical. To be noted: 1 nM enzyme, 2 μM peptide substrate RHKK(Ac)-NH2, 25° C., 12 concentrations; read-out: Inhibitory Concentration (IC50) Values against HDAC6, Activity Range. The method, then:
The enzymatic HDAC6 assay was performed using electrophoretic mobility shift assay. […] The enzymatic reactions were assembled in 384 well plates in a total volume of 25 μL in a reaction buffer composing: 100 mM HEPES, pH7.5, 25 mM KCl, 0.1% bovine serum albumin, 0.01% Triton X-100, 1% DMSO (from compounds) 2 μM of the fluorescently labeled peptide substrate and enzyme. The enzyme was added at a final concentration of 1 nM. The peptide substrate RHKK(Ac)—NH2 was used. The compounds were tested at 12 concentrations spaced by 3× dilution intervals. Negative control samples ([…] in the absence of inhibitor) and positive control samples (100%-inhibition) were assembled in replicates of four in each assay plate. The reactions were incubated at 25° C. and quenched by the addition of 45 μL of termination buffer (100 mM HEPES, pH 7.5, 0.01% Triton X-100, 0.05% SDS).
The terminated assay plates were analyzed on LabChip® 3000 microfluidic electrophoresis instrument (Perkin Elmer/Caliper Life Sciences). The fluorescence intensity of the electrophoretically separated de-acetylated product and substrate peptide was measured. Activity in each sample was determined as the product to sum ratio (PSR): P/(S+P), where P is the peak height of the product peptide and S is the peak height of the substrate peptide. Percent inhibition (Pinh) is determined using the following equation:
Pinh=(PSR0%−PSRinh)/(PSR0%−PSR100%)*100, where PSRinh is the product sum ratio in the presence of inhibitor, PSR0% is the average product sum ration in the absence of inhibitor and PSR100% is the average product sum ratio in 100%-inhibition control samples. The IC50 values of inhibitors were determined by fitting the %-inhibition curves with 4 parameter dose-response model using XLfit 4 software.
In general terms: A gel shift assay detects complexes by their altered migration in electrophoresis.

On to `C[C@@H]1c2ccc(C(=O)NO)cc2OCCN1C(=O)C1(C)CCC1` [(R)-N-hydroxy-5-methyl-4-(1-methylcyclobutane-1-carbonyl)-2,3,4,5-tetrahydrobenzo[f][1,4]oxazepine-8-carboxamide], for which the IC50 was more than 500 nM.
For the compound `COCC1(C(=O)N2Cc3ccc(C(=O)NO)cc3OC[C@@H]2C)CC1` [(S)-N-hydroxy-4-(1-(methoxymethyl)cyclopropane-1-carbonyl)-3-methyl-2,3,4,5-tetrahydrobenzo[f][1,4]oxazepine-8-carboxamide], the IC50 is not above 100 nM.
The value for `O=C(NO)c1ccc2c(c1)OCCN(C(=O)C1(c3ccccc3Cl)CC1)C2` [4-(1-(2-chlorophenyl)cyclopropane-1-carbonyl)-N-hydroxy-2,3,4,5-tetrahydrobenzo[f][1,4]oxazepine-8-carboxamide] was not above 100 nM.
In the case of `O=C(NO)c1ccc2c(c1)OCCN(C(=O)[C@H]1CCCOC1)C2` [(S)-N-hydroxy-4-(tetrahydro-2H-pyran-3-carbonyl)-2,3,4,5-tetrahydrobenzo[f][1,4]oxazepine-8-carboxamide] it was not above 100 nM; in that of `C[C@H]1COc2cc(C(=O)NO)ccc2CN1C(=O)C1(F)CCOCC1` [(S)-4-(4-fluorotetrahydro-2H-pyran-4-carbonyl)-N-hydroxy-3-methyl-2,3,4,5-tetrahydrobenzo[f][1,4]oxazepine-8-carboxamide], not above 100 nM; in that of `COc1ccc(CC(C(=O)N2CCOc3cc(C(=O)NO)ccc3C2)c2ccccc2)cc1` (centres unmarked) [N-hydroxy-4-(3-(4-methoxyphenyl)-2-phenylpropanoyl)-2,3,4,5-tetrahydrobenzo[f][1,4]oxazepine-8-carboxamide], 100 to 500 nM.
On to `Cc1nnnn1C(C(=O)N1CCOc2cc(C(=O)NO)ccc2C1)c1ccccc1` (centres unmarked) [N-hydroxy-4-(2-(5-methyl-1H-tetrazol-1-yl)-2-phenylacetyl)-2,3,4,5-tetrahydrobenzo[f][1,4]oxazepine-8-carboxamide], for which the IC50 was 100 to 500 nM.
In the case of `C[C@H]1c2ccc(C(=O)NO)cc2OCCN1C(=O)[C@H]1CCCOC1` [(S)-N-hydroxy-5-methyl-4-((S)-tetrahydro-2H-pyran-3-carbonyl)-2,3,4,5-tetrahydrobenzo[f][1,4]oxazepine-8-carboxamide] it was not above 100 nM; in that of `O=C(NO)c1ccc2c(c1)OCCN(C(=O)C1(c3cnccn3)CC1)C2` [N-hydroxy-4-(1-(pyrazin-2-yl)cyclopropane-1-carbonyl)-2,3,4,5-tetrahydrobenzo[f][1,4]oxazepine-8-carboxamide], not above 100 nM; in that of `CC(C)[C@H]1COc2cc(C(=O)NO)ccc2CN1C(=O)C1CCOCC1` [(S)-N-hydroxy-3-isopropyl-4-(tetrahydro-2H-pyran-4-carbonyl)-2,3,4,5-tetrahydrobenzo[f][1,4]oxazepine-8-carboxamide], not above 100 nM.
In the case of `CC(Cc1ccccc1)C(=O)N1CCOc2cc(C(=O)NO)ccc2C1` (centres unmarked) [N-hydroxy-4-(2-methyl-3-phenylpropanoyl)-2,3,4,5-tetrahydrobenzo[f][1,4]oxazepine-8-carboxamide] it was not above 100 nM.
In the case of `CC(C(=O)N1CCOc2cc(C(=O)NO)ccc2C1)c1cccnc1` (centres unmarked) [N-hydroxy-4-(2-(pyridin-3-yl)propanoyl)-2,3,4,5-tetrahydrobenzo[f][1,4]oxazepine-8-carboxamide] it was not above 100 nM.
For the compound `CC(C(=O)N1CCOc2cc(C(=O)NO)ccc2C1)c1ccc(F)cc1` (centres unmarked) [4-(2-(4-fluorophenyl)propanoyl)-N-hydroxy-2,3,4,5-tetrahydrobenzo[f][1,4]oxazepine-8-carboxamide], the IC50 was 100 to 500 nM.
Take `COc1ccc(C2(C(=O)N3CCOc4cc(C(=O)NO)ccc4C3)CC2)cc1` [N-hydroxy-4-(1-(4-methoxyphenyl)cyclopropane-1-carbonyl)-2,3,4,5-tetrahydrobenzo[f][1,4]oxazepine-8-carboxamide]: the IC50 is not above 100 nM.
In the case of `COC1CCC(C(=O)N2CCOc3cc(C(=O)NO)ccc3C2)CC1` (centres unmarked) [N-hydroxy-4-(4-methoxycyclohexane-1-carbonyl)-2,3,4,5-tetrahydrobenzo[f][1,4]oxazepine-8-carboxamide] it was not above 100 nM.
In the case of `CS(=O)(=O)N1CCC(CC(=O)N2CCOc3cc(C(=O)NO)ccc3C2)CC1` [N-hydroxy-4-(2-(1-(methylsulfonyl)piperidin-4-yl)acetyl)-2,3,4,5-tetrahydrobenzo[f][1,4]oxazepine-8-carboxamide] it was more than 500 nM; in that of `CC1(C(=O)N2Cc3ccc(C(=O)NO)cc3O[C@@H](c3ccccc3)C2)CCC1` [(S)-N-hydroxy-4-(1-methylcyclobutane-1-carbonyl)-2-phenyl-2,3,4,5-tetrahydrobenzo[f][1,4]oxazepine-8-carboxamide], not above 100 nM.
`CC(C)[C@@H]1CN(C=O)Cc2ccc(C(=O)NO)cc2O1` [(R)-4-formyl-N-hydroxy-2-isopropyl-2,3,4,5-tetrahydrobenzo[f][1,4]oxazepine-8-carboxamide]: the IC50 fell in the range of 100 to 500 nM.
In the case of `O=C(NO)c1ccc2c(c1)OCCN(C(=O)Cc1ccc(C(F)(F)F)cc1)C2` [N-hydroxy-4-(2-(4-(trifluoromethyl)phenyl)acetyl)-2,3,4,5-tetrahydrobenzo[f][1,4]oxazepine-8-carboxamide] it was more than 500 nM; in that of `C[C@H]1COc2cc(C(=O)NO)ccc2CN1C=O` [(S)-4-formyl-N-hydroxy-3-methyl-2,3,4,5-tetrahydrobenzo[f][1,4]oxazepine-8-carboxamide], not above 100 nM.
For the compound `CC(C)(C)OC(=O)N1CCC2(CCC(C(=O)N3CCOc4cc(C(=O)NO)ccc4C3)CC2)C1` (centres unmarked) [tert-butyl 8-(8-(hydroxycarbamoyl)-2,3,4,5-tetrahydrobenzo[f][1,4]oxazepine-4-carbonyl)-2-azaspiro[4.5]decane-2-carboxylate], the IC50 was not above 100 nM.
The value for `CC(C)(C(=O)N1CCOc2cc(C(=O)NO)ccc2C1)c1ccc2c(c1)OCCO2` [4-(2-(2,3-dihydrobenzo[b][1,4]dioxin-6-yl)-2-methylpropanoyl)-N-hydroxy-2,3,4,5-tetrahydrobenzo[f][1,4]oxazepine-8-carboxamide] was 100 to 500 nM; that for `C[C@H]1COc2cc(C(=O)NO)ccc2CN1C(=O)C1CC2CCC(C1)O2` (stereo partly drawn) [(3S)-4-(8-oxabicyclo[3.2.1]octane-3-carbonyl)-N-hydroxy-3-methyl-2,3,4,5-tetrahydrobenzo[f][1,4]oxazepine-8-carboxamide] was not above 100 nM.
The value for `C[C@@H]1COc2cc(C(=O)NO)ccc2CN1C(=O)C1(C)CCC1` [(R)-N-hydroxy-3-methyl-4-(1-methylcyclobutane-1-carbonyl)-2,3,4,5-tetrahydrobenzo[f][1,4]oxazepine-8-carboxamide] was 100 to 500 nM; that for `C[C@H]1COc2cc(C(=O)NO)ccc2CN1C(=O)C1CCN(C=O)CC1` [(S)-4-(1-formylpiperidine-4-carbonyl)-N-hydroxy-3-methyl-2,3,4,5-tetrahydrobenzo[f][1,4]oxazepine-8-carboxamide] was not above 100 nM.
The value for `O=C(NO)c1ccc2c(c1)OCCN(C(=O)C(c1ccccc1)C1CCCCC1)C2` (centres unmarked) [4-(2-cyclohexyl-2-phenylacetyl)-N-hydroxy-2,3,4,5-tetrahydrobenzo[f][1,4]oxazepine-8-carboxamide] was more than 500 nM.
